The subject of one assay is Zymoseptoria tritici. The experiment in a line: Leaf blotch of wheat (SEPTTR) disease control on wheat seedlings. The note with it: for SEPTTR 1DP disease control rating, HV activity / SEPTTR 3DC disease control rating, HV activity: HV application at 100 ppm; for SEPTTR 1DP disease control rating, HV activity at 100 ppm / SEPTTR 3DC disease control rating, HV activity at 100 ppm: high volume application; for SEPTTR 1DP disease control rating, HV activity at 100 ppm: 1 day protectant; for SEPTTR 3DC disease control rating, HV activity at 100 ppm: 3 day curative. Set-up: key to SEPTTR 1DP, HV activity at 100 ppm (% control rating) / SEPTTR 3DC, HV activity at 100 ppm (% control rating) / SEPTTR disease control, 1DP / SEPTTR disease control, 3DC / SEPTTR 1DP disease control rating, HV activity / SEPTTR 3DC disease control rating, HV activity / SEPTTR 3DC, LV activity at 125.1 g/H (% Control rating) / SEPTTR 1DP, LV activity at 125.1 g/H (% Control rating) / SEPTTR 1DP disease control rating, LV activity at 125.1 g/H / SEPTTR 3DC disease control rating, LV activity at 125.1 g/H / SEPTTR 3DC disease control rating, HV activity at 100 ppm / SEPTTR 1DP disease control rating, HV activity at 100 ppm / HV activity at 100 ppm SEPTTR 3DC (disease control rating) / HV activity at 100 ppm SEPTTR 1DP (disease control rating) / LV activity at 125.1 g/H SEPTTR 1DP (disease control rating) / LV activity at 125.1 g/H SEPTTR 3DC (disease control rating): A: > 80; B: ≤ 80; C: Not Tested; D: No Activity Observed in the Reported Assay. In kind it is in vivo.

A further assay relates to Puccinia triticina. Nature of the assay: Wheat brown rust (PUCCRT) disease control on wheat seedlings. In kind it is in vivo. Set-up: key to PUCCRT 3DC, HV activity at 100 ppm (% control rating) / PUCCRT disease control, 3DC / PUCCRT 1DP disease control rating, HV activity / PUCCRT 3DC disease control rating, HV activity / PUCCRT 3DC, LV activity at 125.1 g/H (% Control rating) / PUCCRT 1DP, LV activity at 125.1 g/H (% Control rating) / PUCCRT 3DC disease control rating, LV activity at 125.1 g/H / PUCCRT 1DP disease control rating, LV activity at 125.1 g/H / PUCCRT 3DC disease control rating, HV activity at 100 ppm / PUCCRT 1DP disease control rating, HV activity at 100 ppm / HV activity at 100 ppm PUCCRT 3DC (disease control rating) / LV activity at 125.1 g/H PUCCRT 1DP (disease control rating) / LV activity at 125.1 g/H PUCCRT 3DC (disease control rating): A: > 80; B: ≤ 80; C: Not Tested; D: No Activity Observed in the Reported Assay. The settings on record: for PUCCRT 1DP disease control rating, HV activity / PUCCRT 3DC disease control rating, HV activity: HV application at 100 ppm; for PUCCRT 1DP disease control rating, HV activity at 100 ppm / PUCCRT 3DC disease control rating, HV activity at 100 ppm: high volume application; for PUCCRT 1DP disease control rating, HV activity at 100 ppm: 1 day protectant; for PUCCRT 3DC disease control rating, HV activity at 100 ppm: 3 day curative.

Setting [1] is: 1 Day Protectant, wheat leaf blotch.
The mark [2] stands for this setting: 3 Day Curative, wheat leaf blotch.
Setting [3] is: 1 Day Protectant, wheat brown rust.
Setting [4] is: 3 Day Curative, wheat brown rust.
Setting [5] is: low volume application, 125.1 g/H, 1 Day Protectant.
Where [6] appears, read: low volume application, 125.1 g/H, 3 Day Curative.

Each structure is given as a SMILES string.

Turning to `CCCOC(CC)C(Oc1ccccc1)C(C)OC(=O)C(C)NC(=O)c1nccc(OC)c1OC(C)=O` (stereo not shown) [Cmpd 450], the “SEPTTR 1DP disease control rating, HV activity” value in the assay with Zymoseptoria tritici (setting [1]) is “A (> 80)”. In addition, the “SEPTTR 3DC disease control rating, HV activity” value in the assay with Zymoseptoria tritici (setting [2]) is reported as “A (> 80)”. In addition, the “SEPTTR 1DP disease control rating, LV activity” value in the assay on Zymoseptoria tritici (Low volume application at 125.1 g/H, 1 Day Protectant, wheat leaf blotch) is on record as “B (≤ 80)”. Also, in the assay with Zymoseptoria tritici (Low volume application at 125.1 g/H, 3 Day Curative, wheat leaf blotch), the “SEPTTR 3DC disease control rating, LV activity” value is “B (≤ 80)”. Besides, the “PUCCRT 1DP disease control rating, HV activity” value with Puccinia triticina (setting [3]) is “A (> 80)”. In addition, the “PUCCRT 3DC disease control rating, HV activity” value in the assay with Puccinia triticina (setting [4]) was “A (> 80)”. Also, the “PUCCRT 1DP disease control rating, LV activity” value in the assay with Puccinia triticina (Low volume application at 125.1 g/H, 1 Day Protectant, wheat brown rust) was “A (> 80)”. Besides, the “PUCCRT 3DC disease control rating, LV activity” value in the assay with Puccinia triticina (Low volume application at 125.1 g/H, 3 Day Curative, wheat brown rust) was “A (> 80)”.

Take `C=CC[C@@H](OCc1ccccc1)[C@H](C)OC(=O)[C@H](C)NC(=O)c1nccc(OC)c1OCOC(C)=O` [Cmpd 516]: the “SEPTTR 1DP, LV activity at 125.1 g/H (% Control rating)” value (“SEPTTR 1DP … (% Control rating)” below) in the assay with Zymoseptoria tritici (setting [5]) is given as “B (≤ 80)”. Also, the “SEPTTR 3DC, LV activity at 125.1 g/H (% Control rating)” value (shortened to “SEPTTR 3DC … (% Control rating)”) in the assay with Zymoseptoria tritici (setting [6]) is on record as “D”. Besides, the “PUCCRT 1DP, LV activity at 125.1 g/H (% Control rating)” value (“PUCCRT 1DP … (% Control rating)” for short) in the assay with Puccinia triticina (setting [5]) is on record as “A (> 80)”. For the same compound, the “PUCCRT 3DC, LV activity at 125.1 g/H (% Control rating)” value (“PUCCRT 3DC … (% Control rating)” below) in the assay on Puccinia triticina (setting [6]) was “A (> 80)”.

Take `CCOc1ccnc(C(=O)N[C@@H](C)C(=O)O[C@@H](C)[C@@H](CC(C)C)Oc2cccc(F)c2)c1OC(C)=O` [Cmpd 1107]: the “LV activity at 125.1 g/H SEPTTR 1DP (disease control rating)” value in the assay on Zymoseptoria tritici (low volume application, 125.1 g/H, 1 Day Protectant, wheat leaf blotch) is given as “D”. For the same compound, the “LV activity at 125.1 g/H SEPTTR 3DC (disease control rating)” value in the assay with Zymoseptoria tritici (low volume application, 125.1 g/H, 3 Day Curative, wheat leaf blotch) is listed as “D”. In the assay on Puccinia triticina (low volume application, 125.1 g/H, 1 Day Protectant, wheat brown rust), the “LV activity at 125.1 g/H PUCCRT 1DP (disease control rating)” value is recorded as “B (≤ 80)”. The “LV activity at 125.1 g/H PUCCRT 3DC (disease control rating)” value in the assay with Puccinia triticina (low volume application, 125.1 g/H, 3 Day Curative, wheat brown rust) is listed as “B (≤ 80)”.

Regarding `CCC(CC)C(Oc1cc(F)ccc1F)C(C)OC(=O)C(C)NC(=O)c1nccc(OC)c1O` (stereo not shown) [Cmpd 382], the “SEPTTR 1DP disease control rating, HV activity” value in the assay on Zymoseptoria tritici (setting [1]) is reported as “D”. The “SEPTTR 3DC disease control rating, HV activity” value in the assay with Zymoseptoria tritici (setting [2]) is recorded as “B (≤ 80)”. Also, the “PUCCRT 1DP disease control rating, HV activity” value in the assay with Puccinia triticina (setting [3]) is “A (> 80)”. Also, in the assay with Puccinia triticina (setting [4]), the “PUCCRT 3DC disease control rating, HV activity” value is recorded as “A (> 80)”.

With `COc1cc(O[C@@H]([C@H](C)OC(=O)[C@H](C)NC(=O)c2nccc(OC)c2O)C(C)(C)C)ccc1Cl` [Cmpd 1001], in the assay on Zymoseptoria tritici, the “SEPTTR 1DP disease control rating, HV activity at 100 ppm” value is listed as “B (≤ 80)” and the “SEPTTR 3DC disease control rating, HV activity at 100 ppm” value is on record as “D”. In the assay on Puccinia triticina, the “PUCCRT 1DP disease control rating, HV activity at 100 ppm” value is recorded as “A (> 80)” and the “PUCCRT 3DC disease control rating, HV activity at 100 ppm” value was “A (> 80)”.

In the case of `COc1ccnc(C(=O)N[C@@H](C)C(=O)O[C@@H](C)[C@H](Oc2ccc3ccccc3c2)C(C)C)c1OCOC(C)=O` [Cmpd 622], the “SEPTTR 1DP … (% Control rating)” value with Zymoseptoria tritici (setting [5]) is given as “D”. Moreover, the “SEPTTR 3DC … (% Control rating)” value in the assay with Zymoseptoria tritici (setting [6]) is “B (≤ 80)”. In the assay on Puccinia triticina (setting [5]), the “PUCCRT 1DP … (% Control rating)” value is listed as “A (> 80)”. The “PUCCRT 3DC … (% Control rating)” value in the assay on Puccinia triticina (setting [6]) is given as “A (> 80)”.

`CCC(CC)C(Oc1ccc(Cl)cc1Cl)C(C)OC(=O)C(C)NC(=O)c1nccc(OC)c1O` (stereo not shown) [Cmpd 381]: the “SEPTTR 1DP disease control rating, HV activity” value in the assay on Zymoseptoria tritici (setting [1]) is listed as “D”. Further, in the assay on Zymoseptoria tritici (setting [2]), the “SEPTTR 3DC disease control rating, HV activity” value is “D”. Also, in the assay on Puccinia triticina (setting [3]), the “PUCCRT 1DP disease control rating, HV activity” value is “D”. Besides, in the assay with Puccinia triticina (setting [4]), the “PUCCRT 3DC disease control rating, HV activity” value is given as “D”.

For `COc1ccnc(C(=O)NC(C)C(=O)OC(C)C(Oc2ccc(F)cc2)c2ccc(F)cc2)c1O` (mixture of isomers) [Cmpd 838], in the assay with Zymoseptoria tritici, the “SEPTTR 1DP disease control rating, HV activity at 100 ppm” value is “A (> 80)” and the “SEPTTR 3DC disease control rating, HV activity at 100 ppm” value is “A (> 80)”. For the same compound, in the assay with Puccinia triticina, the “PUCCRT 1DP disease control rating, HV activity at 100 ppm” value was “A (> 80)” and the “PUCCRT 3DC disease control rating, HV activity at 100 ppm” value is recorded as “B (≤ 80)”.

`COc1ccnc(C(=O)N[C@H](C(=O)O[C@@H](C)[C@H](Oc2ccc(C(F)(F)F)cc2)c2ccccc2)C(C)C)c1OC(C)=O` [Cmpd 585]: the “SEPTTR 1DP … (% Control rating)” value in the assay with Zymoseptoria tritici (setting [5]) is reported as “A (> 80)”. In addition, the “SEPTTR 3DC … (% Control rating)” value in the assay with Zymoseptoria tritici (setting [6]) is given as “D”. The “PUCCRT 1DP … (% Control rating)” value with Puccinia triticina (setting [5]) is “A (> 80)”. Also, in the assay with Puccinia triticina (setting [6]), the “PUCCRT 3DC … (% Control rating)” value is “B (≤ 80)”.
